Measured values taken from patent publication US20050075358A1, “Methods for treating IGF1R-inhibitor induced hyperglycemia” (priority 2003, published 2005).

Key:
insulin receptor = biological target: T1, insulin receptor (Rattus norvegicus, UniProt P15127); assay: acute Oral Glucose Tolerance Test (OGTT) in rats; assay type: in vivo; details: fasted rats, oral single dose 50, 100 and 200 mpk 4 hrs prior to glucose challenge (1 g/kg); glucose at 30, 60, 90, 120 min by glucometer
T1 construct: from tissue; host or cells: whole living rats (in vivo)
Method: FIG. 1: The effect of inhibition of the insulin receptor was measured using an Oral Glucose Tolerance Test (OGTT). IGF1R Inhibitor A (4-[2-(3-chloro-phenyl)-2-hydroxy-ethylamino]-3-(4-methyl-6-morpholin-4-yl-1H-benzoimidazol-2-yl)-1H-pyridin-2-one) was tested in an acute OGTT study in rats: Fasted rats were orally dosed with Inhibitor A at 50, 100, and 200 mpk as a single dose for 4 hrs prior to glucose challenge (1 g/kg). Glucose was monitored at 30, 60, 90 and 120 minutes post glucose challenge using a glucometer.

[1] = acute OGTT study of combination therapy using Metformin and Inhibitor A in rats; assay type: in vivo
Method: FIG. 2: An acute OGTT study to determine the effects of combination therapy using Metformin and Inhibitor A on glucose-lowering was conducted in rats. In order to stabilize glucose levels, food was withdrawn for 1 hr prior to administration of any reagent. Glucose challenge was administered 2 hrs after the administration of Inhibitor A and plasma glucose monitored. Plasma glucose levels increased upon administration of the Inhibitor (200 mpk) to 150 mg/dl prior to glucose challenge and to 250 mg/dl post-glucose challenge.

T1 sequence (P15127 764-1383 limits assumed): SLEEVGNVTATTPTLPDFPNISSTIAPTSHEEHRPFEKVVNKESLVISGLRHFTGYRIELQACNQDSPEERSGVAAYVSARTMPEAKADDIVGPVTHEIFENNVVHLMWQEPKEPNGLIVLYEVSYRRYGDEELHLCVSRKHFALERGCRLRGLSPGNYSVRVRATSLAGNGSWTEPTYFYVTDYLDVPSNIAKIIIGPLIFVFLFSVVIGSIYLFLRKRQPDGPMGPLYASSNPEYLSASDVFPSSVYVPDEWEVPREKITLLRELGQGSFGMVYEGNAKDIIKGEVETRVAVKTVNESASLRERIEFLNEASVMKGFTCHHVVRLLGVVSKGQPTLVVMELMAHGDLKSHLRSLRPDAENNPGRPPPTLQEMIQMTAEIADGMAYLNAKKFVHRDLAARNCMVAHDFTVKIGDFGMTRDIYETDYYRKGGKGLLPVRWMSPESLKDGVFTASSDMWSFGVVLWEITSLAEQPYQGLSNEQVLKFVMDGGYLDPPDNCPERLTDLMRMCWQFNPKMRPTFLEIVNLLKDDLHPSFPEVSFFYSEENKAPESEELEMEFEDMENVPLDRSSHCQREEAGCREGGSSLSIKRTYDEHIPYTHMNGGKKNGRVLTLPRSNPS
T1 sequence (P15127 27-759 partner limits assumed): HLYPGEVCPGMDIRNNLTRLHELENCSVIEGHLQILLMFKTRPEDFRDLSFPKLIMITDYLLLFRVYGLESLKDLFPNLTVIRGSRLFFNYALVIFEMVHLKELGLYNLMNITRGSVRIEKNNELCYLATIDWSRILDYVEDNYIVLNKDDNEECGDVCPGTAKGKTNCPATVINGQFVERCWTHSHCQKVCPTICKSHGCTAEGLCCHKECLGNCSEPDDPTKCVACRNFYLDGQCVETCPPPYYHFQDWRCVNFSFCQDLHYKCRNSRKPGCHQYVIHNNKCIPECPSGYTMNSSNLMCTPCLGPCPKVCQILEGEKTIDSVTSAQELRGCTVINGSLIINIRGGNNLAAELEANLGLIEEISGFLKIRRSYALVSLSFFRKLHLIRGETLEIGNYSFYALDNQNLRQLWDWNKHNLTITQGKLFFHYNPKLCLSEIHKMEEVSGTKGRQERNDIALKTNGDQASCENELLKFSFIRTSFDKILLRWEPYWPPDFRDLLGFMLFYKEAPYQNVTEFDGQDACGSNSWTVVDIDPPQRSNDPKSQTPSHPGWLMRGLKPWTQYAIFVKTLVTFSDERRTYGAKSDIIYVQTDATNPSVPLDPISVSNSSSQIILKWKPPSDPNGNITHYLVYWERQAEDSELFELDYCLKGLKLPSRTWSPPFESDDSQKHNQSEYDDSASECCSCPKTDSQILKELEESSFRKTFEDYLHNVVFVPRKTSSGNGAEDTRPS

SMILES	effect on basal and post-glucose challenge glucose (insulin receptor)	plasma glucose level post-glucose challenge ([1]; rats, Inhibitor 200 mpk, glucose challenge 2 hrs after Inhibitor A)	plasma glucose level prior to glucose challenge ([1]; rats, Inhibitor 200 mpk, prior to glucose challenge)	hyperglycemic effects of Inhibitor A after Metformin pretreatment ([1]; rats pretreated for 1 hr with Metformin 450 mpk, then Inhibitor A 200 mpk)
Cc1cc(N2CCOCC2)cc2[nH]c(-c3c(NCC(O)c4cccc(Cl)c4)cc[nH]c3=O)nc12 (stereo not shown) [Inhibitor A, 4-[2-(3-chloro-phenyl)-2-hydroxy-ethylamino]-3-(4-methyl-6-morpholin-4-yl-1H-benzoimidazol-2-yl)-1H-pyridin-2-one]	more pronounced effect on basal and post-glucose challenge at higher drug concentrations	250 mg/dL	150 mg/dL	
CN(C)C(=N)N=C(N)N [Metformin, reference compound]				completely ameliorated
